In experiment [1] the target is human dopamine D2Long (D2L) receptors (Homo sapiens, UniProt P14416).
Another experiment has as its target T1, D1 receptor (Homo sapiens, UniProt P21728).
T1 construct: expressed in transfected cells; host or cells: D1 transfected CHO cell line
The experiment in a line: D1 Activation Adenylyl Cyclase Assay (cAMP FlashPlate, D1 transfected CHO cell line). The experiment is classed as cell-based. To be noted: agonist activity at the D1 receptor, adenylate cyclase assay, D1 transfected CHO cell line; read-out: D1 EC50. The method, then: D1 Activation Adenylyl Cyclase Assay
Purpose: To measure D1-agonist activity compounds using an Adenylyl Cyclase Activation Flash Plate Assay from NEN.
Buffers: Activation and Detection buffers are provided from NEN: Catalog # SMP004A.
Maintenance of D1 transfected CHO cell line: • 1. Cells are grown in a 150 cc flask in an incubator at 37° C. with 5% CO2 for 2-3 days (4 maximum) until confluent. • 2. Aspirate off old media (Cells adhere to the plastic flask), wash 2× with sterile PBS. • 3. Add ˜5 mL of Trypsin EDTA (enough to cover bottom of the flask) for 5 min. at RT. • 4. Stop digestion with 15 mL of Media (Ham's F12 plus 10% FBS, 1% P/S, 400 μg/mL G418). • Bang flask on counter to release them from the flask. • 5. Add 2 mL of this to 30 mL of Media in a fresh flask. Return to incubator. Preparation of Cells for Assay: • 1. Loosen the cells with 5 mL Vercine (EDTA)/flask for 10 minutes in incubator. • 2. Add 20 mL of Serum-free media/flask. Transfer to 50-mL Falcon tube. • 3. Spin down cells at 1000 RPM for 5 minutes at 4° C. • 4. Aspirate off old media and resuspend in 5 mL of Serum-free media/plate to be done. • 5. Dilute 10 μL 1/10 in 90 μL Trypan Blue solution and count with a hemocytometer. • Count (live cells only) all four areas and average them. • Count X 10^5 equals cells/mL (including accounting for dilution in Trypan). • 6. Dilute to 50,000 cells/50 μL (1,000,000 cells/mL) in Serum-free media. • 7. Put 50 μL/well in Rows 3-12 of a cAMP FlashPlate. • 8. Put in incubator at 37° C. for 2-4 hours, to allow cells to recover and attach. Adenylyl Cyclase Activation Assay: • 1. Prepare the cAMP standards: • Add 130 μL/well of stimulation buffer to each row of a separate 96-well “standard” plate, 2 columns/plate. • Dilute stock cAMP standard 1/5 with stimulation buffer (final concentration is 1000 pmol/mL). Add 130 μL of this to row A. • Make 1/2 serial dilutions by adding 130 μL from each well to the next (A-G), mixing between each. • Final concentrations are: • A: 500, B: 250, C: 125, D: 62.5, E: 31.25, F: 15.6, G: 7.8, H: 0 pmol/mL. • Place 100 μL from each row from 2 columns of the standard plate into columns 1 and 2 of each “reaction” plate. • 2. Prepare the negative and positive control in the “reaction” plate: • Column 3, rows A-D, add 100 μL stimulation buffer (negative control). • Column 3, rows E-H, add 90 μL of stimulation buffer plus 10 μL of 200 μM APO (positive control, […]). (10 μL 10 mM APO, plus 490 μL stim. buffer=1/50 dilution.) • 3. Prepare the agonist compound dilutions in the “compound” plate: • Add 80 μL of stimulation buffer to row A (One column for each compound), and 90 μL of stimulation buffer to rows B—H. • Add 20 μL of 10 mM of each compound to appropriate row A. • Make 1/10 serial dilutions by adding 10 μL from each well to the next (A-H), mixing between each. • 4. […]. Prepare Detection/Stop buffer by adding 90 μL/plate of cAMP-^125I to 10 mL/plate plus 6 mL (for dead volume) of detection buffer. Steps 6-8 performed with the Multi-Mek. • 6. Add 50 μL to each well of the FlashPlate with CHO cells set up earlier. • 7. Incubate at RT for 8 minutes. • 8. Stop reaction by adding 100 μL of detection/stop buffer to each well. • 9. Cover with plastic film and incubate at RT for 16-24 hours (don't wait more than 24 hours). • 10. Count in a Packard Top-Count. Calculations: • 1. Raw signals generated by cAMP standard wells, without cells, are averaged at each cAMP concentration and converted to % B/Bo by dividing the raw signal at each cAMP concentration by the raw signal with no cAMP added. • 2. These values are used to generate a standard curve by plotting cAMP concentration versus % B/Bo. • 3. Raw data for each compound at each concentration is also converted to % B/B. by the same method. • 4. These values are then converted to pmol cAMP/mL using the standard curve. • 5. These cAMP values are then averaged across the three replicates for each compound concentration. • 6. […]

In experiment [2] the target is T2, human dopamine D1 receptor (Homo sapiens, UniProt P21728).
T2 construct: A 1.4 Kb Hind III to Xho I fragment was subcloned into the vector pMMLV; expressed in transfected cells; host or cells: CHO cells, clone CHO-D1M#9 (plasmid pHD1MMLV), membranes
T2 sequence (P21728 whole entry, the tested form may be a part): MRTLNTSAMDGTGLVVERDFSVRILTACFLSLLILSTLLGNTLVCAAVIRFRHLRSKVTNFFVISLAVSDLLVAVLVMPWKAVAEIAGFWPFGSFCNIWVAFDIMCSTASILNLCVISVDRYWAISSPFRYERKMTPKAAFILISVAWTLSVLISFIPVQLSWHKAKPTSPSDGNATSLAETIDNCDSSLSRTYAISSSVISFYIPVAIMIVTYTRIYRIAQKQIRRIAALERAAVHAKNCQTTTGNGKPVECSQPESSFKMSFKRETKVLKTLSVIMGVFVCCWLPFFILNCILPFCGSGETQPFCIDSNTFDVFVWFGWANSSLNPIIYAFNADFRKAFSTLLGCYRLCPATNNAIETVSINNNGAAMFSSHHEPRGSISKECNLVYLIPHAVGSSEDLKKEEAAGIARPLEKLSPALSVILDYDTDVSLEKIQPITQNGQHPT
The experiment in a line: [3H]-SCH-23390 binding to cloned human dopamine D1 receptors (CHO cell membranes). To be noted: competitive binding, [3H]-SCH-23390, cloned human D1 in CHO membranes; read-out: D1 affinity Ki.

Where a name gives a salt, the structure may show the parent alone.

The term Ki denotes the dissociation constant of the complex between target and ligand, obtained from inhibition or displacement. As usually defined, the EC50 is the concentration giving half of the maximal effect.

T1 sequence (P21728 whole entry): as the sequence (P21728 whole entry, the tested form may be a part) above
Sequence of human dopamine D2Long (D2L) receptors (P14416 whole entry): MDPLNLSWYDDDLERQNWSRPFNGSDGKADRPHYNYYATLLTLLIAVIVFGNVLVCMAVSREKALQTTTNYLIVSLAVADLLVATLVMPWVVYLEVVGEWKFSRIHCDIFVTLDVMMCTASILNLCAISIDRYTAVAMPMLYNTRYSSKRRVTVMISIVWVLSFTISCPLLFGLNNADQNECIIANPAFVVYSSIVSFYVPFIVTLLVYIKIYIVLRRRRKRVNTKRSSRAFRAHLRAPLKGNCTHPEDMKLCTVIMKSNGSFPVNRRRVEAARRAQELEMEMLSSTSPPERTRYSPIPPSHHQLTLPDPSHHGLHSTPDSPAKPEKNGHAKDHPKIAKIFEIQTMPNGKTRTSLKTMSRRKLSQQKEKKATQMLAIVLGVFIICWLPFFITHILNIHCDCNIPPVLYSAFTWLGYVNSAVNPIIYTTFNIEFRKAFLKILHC

Turning to `Cc1ccc2c(c1O)C[C@@H](C1CCN(CCC(C)NC(=O)c3ccc(Cl)cc3)CC1)O[C@H]2CN` (stereo partly drawn) [Example 13, N-{3-[4-((1R,3S)-1-Aminomethyl-5-hydroxy-6-methyl-isochroman-3-yl)-piperidin-1-yl]-1-methyl-propyl}-4-chloro-benzamide dihydrochloride], the inhibition constant (Ki) in experiment [1] was determined as 361 nM; in experiment [2], 128 nM. In addition, the concentration for a half-maximal effect (EC50) on D1 receptor amounted to 30 nM.
As for `Cc1ccc2c(c1O)C[C@@H](C1CCN(CCC(C)NC(=O)c3ccc(C(F)(F)F)cc3)CC1)O[C@H]2CN` (stereo partly drawn) [Example 16, N-{3-[4-((1R,3S)-1-Aminomethyl-5-hydroxy-6-methyl-isochroman-3-yl)-piperidin-1-yl]-1-methyl-propyl}-4-trifluoromethyl-benzamide dihydrochloride], the Ki in experiment [1] was 379 nM; in experiment [2] it was 149 nM. In addition, the EC50 on D1 receptor was determined as 56 nM.
`Cc1ccc2c(c1O)C[C@@H](C1CCN(CCC(C)NC(=O)c3ccc(Cl)cc3Cl)CC1)O[C@H]2CN` (stereo partly drawn) [Example 17, N-{3-[4-((1R,3S)-1-Aminomethyl-5-hydroxy-6-methyl-isochroman-3-yl)-piperidin-1-yl]-1-methyl-propyl}-2,4-dichloro-benzamide dihydrochloride]: the Ki in experiment [1] is at least 100000 nM; in experiment [2] it was 138 nM. Further, at D1 receptor, the EC50 is 18 nM.
With `Cc1ccc2c(c1O)C[C@@H](C1CCN(CCC(C)NC(=O)c3ccc4ccccc4c3)CC1)O[C@H]2CN` (stereo partly drawn) [Example 19, Naphthalene-2-carboxylic acid {3-[4-((1R,3S)-1-aminomethyl-5-hydroxy-6-methyl-isochroman-3-yl)-piperidin-1-yl]-1-methyl-propyl}-amide dihydrochloride], the inhibition constant Ki in experiment [1] came to 310 nM; in experiment [2] it was 158 nM. Besides, the EC50 on D1 receptor is 6.1 nM.
As to `Cc1ccc2c(c1O)C[C@@H](C1CCN(CCC(C)NC(=O)c3cc4ccccc4s3)CC1)O[C@H]2CN` (stereo partly drawn) [Example 20, Benzo[b]thiophene-2-carboxylic acid {3-[4-((1R,3S)-1-aminomethyl-5-hydroxy-6-methyl-isochroman-3-yl)-piperidin-1-yl]-1-methyl-propyl}-amide dihydrochloride], the inhibitory constant (Ki) stood at 265 nM in experiment [1] and 52.4 nM in experiment [2]. Also, on D1 receptor, the EC50 is 61 nM.
As to `Cc1ccc2c(c1O)C[C@@H](C1CCN(CCC(C)NC(=O)c3ccccc3)CC1)O[C@H]2CN` (stereo partly drawn) [Example 21, N-{3-[4-((1R,3S)-1-Aminomethyl-5-hydroxy-6-methyl-isochroman-3-yl)-piperidin-1-yl]-1-methyl-propyl}-benzamide dihydrochloride], the inhibition constant Ki in experiment [1] is at least 100000 nM; in experiment [2], 120 nM. The EC50 at D1 receptor is 14 nM.
For the compound `Cc1ccc2c(c1O)C[C@@H](C1CCN(CCC(C)NC(=O)c3ccc(F)cc3)CC1)O[C@H]2CN` (stereo partly drawn) [Example 22, N-{3-[4-((1R,3S)-1-Aminomethyl-5-hydroxy-6-methyl-isochroman-3-yl)-piperidin-1-yl]-1-methyl-propyl}-4-fluoro-benzamide dihydrochloride], the Ki in experiment [1] is 564 nM; in experiment [2], 114 nM. The half-maximal effective concentration (EC50) on D1 receptor worked out at 24 nM.
For `Cc1ccc2c(c1O)C[C@@H](C1CCN(CCC(C)NC(=O)c3cccs3)CC1)O[C@H]2CN` (stereo partly drawn) [Example 25, Thiophene-2-carboxylic acid {3-[4-((1R,3S)-1-aminomethyl-5-hydroxy-6-methyl-isochroman-3-yl)-piperidin-1-yl]-1-methyl-propyl}-amide dihydrochloride], the Ki in experiment [1] amounted to 218 nM; in experiment [2] it was 56.1 nM. The concentration for a half-maximal effect (EC50) at D1 receptor came out at 54 nM.
Consider `Cc1ccc2c(c1O)C[C@@H](C1CCN(Cc3ccc(F)cc3)CC1)O[C@H]2CN` [Example 26, (1R,3S)-1-Aminomethyl-3-[1-(4-fluoro-benzyl)-piperidin-4-yl]-6-methyl-isochroman-5-ol dihydrobromide], for which the inhibition constant Ki in experiment [1] is at least 10000 nM; in experiment [2] it was 33 nM. The EC50 at D1 receptor came to 11 nM.
As for `Cc1ccc2c(c1O)C[C@@H](C1CCN(CC(c3ccccc3)c3ccccc3)CC1)O[C@H]2CN` [Example 28, (1R,3S)-1-Aminomethyl-3-[1-(2,2-diphenyl-ethyl)-piperidin-4-yl]-6-methyl-isochroman-5-ol dihydrobromide], the Ki amounted to 180 nM in experiment [1] and 82 nM in experiment [2]. At D1 receptor, the EC50 was found to be 131 nM.
Turning to `Cc1ccc2c(c1O)C[C@@H](C1CCN(CC(C)c3ccccc3)CC1)O[C@H]2CN` (stereo partly drawn) [Example 29, (1R,3S)-1-Aminomethyl-3-[1-(2-phenyl-propyl)-piperidin-4-yl]-6-methyl-isochroman-5-ol dihydrobromide], the inhibition constant (Ki) in experiment [1] is at least 10000 nM; in experiment [2], 64 nM. In addition, on D1 receptor, the EC50 came out at 40 nM.
On to `Cc1ccc2c(c1O)C[C@@H](C1CCN(C(C)Cc3ccccc3)CC1)O[C@H]2CN` (stereo partly drawn) [Example 30, (1R,3S)-1-Aminomethyl-6-methyl-3-[1-(1-methyl-2-phenyl-ethyl)-piperidin-4-yl]-isochroman-5-ol dihydrobromide], for which the Ki in experiment [1] is at least 10000 nM; in experiment [2], 55.2 nM. Also, the EC50 at D1 receptor was determined as 60 nM.
As to `COc1cccc(CN2CCC([C@@H]3Cc4c(ccc(C)c4O)[C@H](CN)O3)CC2)c1` [Example 31, (1R,3S)-1-Aminomethyl-3-[1-(3-methoxy-benzyl)-piperidin-4-yl]-6-methyl-isochroman-5-ol dihydrochloride], the results for the inhibition constant (Ki) in experiment [1] and in experiment [2] were 575 nM and 12 nM, respectively. Also, the EC50 on D1 receptor worked out at 13 nM.
Regarding `Cc1ccc2c(c1O)C[C@@H](C1CCN(C3Cc4ccccc4C3)CC1)O[C@H]2CN` [Example 32, (1R,3S)-1-Aminomethyl-3-(1-indan-2-yl-piperidin-4-yl)-6-methyl-isochroman-5-ol dihydrobromide], the figures for the Ki in experiment [1] and in experiment [2] were 127 nM and 22 nM, respectively. Moreover, the EC50 on D1 receptor is 12 nM.
`Cc1ccc2c(c1O)C[C@@H](C1CCN(Cc3ccccc3)CC1)O[C@H]2CN1CCCC1` [Example 178, (1R,3S)-3-(1-Benzyl-piperidin-4-yl)-6-methyl-1-pyrrolidin-1-ylmethyl-isochroman-5-ol]: the inhibitory constant (Ki) in experiment [1] worked out at 181 nM. Further, the EC50 at D1 receptor is at least 10000 nM.
Take `CCN(C)C[C@@H]1O[C@H](C2CCN(Cc3ccc(C(F)(F)F)cc3)CC2)Cc2c1ccc(C)c2O` [Example 183, (1R,3S)-1-[(Ethyl-methyl-amino)-methyl]-6-methyl-3-[1-(4-trifluoromethyl-benzyl)-piperidin-4-yl]-isochroman-5-ol]: the EC50 at D1 receptor worked out at 7000 nM. For the same compound, the inhibition constant (Ki) in experiment [2] stood at 123 nM.
